Target: human mGluR4 (Homo sapiens (Human), UniProt Q14833)
Assay: mGluR4 potentiation assay, CHO cells transfected with human mGluR4, Ca2+-sensitive fluorescent dye, EC20 agonist
Assay type: cell-based
Conditions: potentiation of mGluR4; table does not state human or rat receptor
Description: The disclosed compounds and compositions can be evaluated for their ability to act as a potentiator of metabotropic glutamate receptor activity, in particular mGluR4 activity, by any suitable known methodology known in the art. For example, Chinese Hamster Ovary (CHO) cells transfected with human mGluR4 or HEK cells co-transfected with rat mGluR4 and the G-protein regulated Inwardly Rectifying Potassium channel (GIRK) were plated in clear bottom assay plates for assay in a Hamamatsu FDSS Fluorometric Plate Reader. The cells were loaded with either a Ca2+-sensitive fluorescent dye or the thallium responsive dye and the plates were washed and placed into a suitable kinetic plate reader. For human mGluR4 assays, a fluorescence baseline was established for 3-5 seconds, the disclosed compounds were then added to the cells, and the response in cells was measured. Approximately two and a half minutes later, a concentration of mGluR4 orthosteric agonist (e.g. glutamate or L-AP4) eliciting approximately 20% (EC20) of the maximal agonist response was added to the cells, and the response was measured. Two minutes later, a concentration of mGluR4 agonist (e.g. glutamate or L-AP4) eliciting 80% (EC80) of the maximal agonist response was added to the cells, and the response was measured. For rat mGluR4/GIRK experiments, a baseline was established for approximately five seconds, disclosed compounds were added, and either an EC20 or EC80 concentration of agonist was added approximately two and one half minutes later.
The above described assay operated in two modes. In the first mode, a range of concentrations of the disclosed compounds are added to cells, followed by a single fixed concentration of agonist. If the compound acts as a potentiatior, an EC50 value for potentiation and a maximum extent of potentiation by the compound at this concentration of agonist is determined by non-linear curve fitting. If the compound acts as a noncompetitive antagonist, an IC50 value is determined by non-linear curve fitting. In the second mode, several fixed concentrations of the disclosed compounds are added to various wells on a plate, followed by a range in concentrations of agonist for each concentration of disclosed compound. The EC50 values for the agonist at each concentration of compound are determined by non-linear curve fitting. A decrease in the EC50 value of the agonist with increasing concentrations of the sample compound (a leftward shift of the agonist concentration-response curve) is an indication of the degree of mGluR4 potentiation at a given concentration of the sample compound. A decrease in the maximal response of the agonist with increasing concentrations of the sample compounds, with or without a rightward shift in agonist potency, is an indication of the degree of noncompetitive antagonism at mGluR4. The second mode also indicates whether the sample compounds also affect the maximum response to mGluR4 to agonists.

human mGluR4, sequence (Q14833 33-912): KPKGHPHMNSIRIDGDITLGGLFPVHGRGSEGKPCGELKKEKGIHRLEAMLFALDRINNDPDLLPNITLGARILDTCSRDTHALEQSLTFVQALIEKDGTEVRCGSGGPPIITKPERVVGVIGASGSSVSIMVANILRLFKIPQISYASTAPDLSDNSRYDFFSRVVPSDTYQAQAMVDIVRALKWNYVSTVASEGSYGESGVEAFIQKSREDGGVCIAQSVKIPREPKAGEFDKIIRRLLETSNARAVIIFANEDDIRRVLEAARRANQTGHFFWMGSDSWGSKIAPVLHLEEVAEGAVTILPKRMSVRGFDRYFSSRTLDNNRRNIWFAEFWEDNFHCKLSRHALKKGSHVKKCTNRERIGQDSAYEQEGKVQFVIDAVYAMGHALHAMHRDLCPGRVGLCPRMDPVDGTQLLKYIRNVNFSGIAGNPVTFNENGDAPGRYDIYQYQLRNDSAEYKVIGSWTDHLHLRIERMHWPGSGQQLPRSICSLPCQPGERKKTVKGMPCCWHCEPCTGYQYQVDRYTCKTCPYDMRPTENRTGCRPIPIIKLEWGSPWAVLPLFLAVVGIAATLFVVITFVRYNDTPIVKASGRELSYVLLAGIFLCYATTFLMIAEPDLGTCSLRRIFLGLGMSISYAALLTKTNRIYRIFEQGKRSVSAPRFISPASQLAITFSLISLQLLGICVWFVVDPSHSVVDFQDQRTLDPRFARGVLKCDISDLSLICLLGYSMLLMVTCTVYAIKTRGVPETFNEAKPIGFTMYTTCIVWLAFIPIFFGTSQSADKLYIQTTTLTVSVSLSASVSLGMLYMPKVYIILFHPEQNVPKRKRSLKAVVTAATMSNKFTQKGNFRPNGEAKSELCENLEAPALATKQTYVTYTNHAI

SMILES | EC50 [µM]
Fc1cccc(Nc2n[nH]c3cccnc23)c1 [Example 12, N-(3-fluorophenyl)-1H-pyrazolo[4,3-b]pyridin-3-amine] | 0.584
Clc1cc(N(c2ncccn2)c2n[nH]c3cccnc23)ccc1Oc1ncccn1 [Example 27, N-(3-chloro-4-(pyrimidin-2-yloxy)phenyl)-N-(pyrimidin-2-yl)-1H-pyrazolo[4,3-b]pyridin-3-amine] | 9.07
